Experiments:
[1] = system: induction of TAT by dexamethasone in HepG2 cells; assay: HepG2 tyrosine aminotransferase (TAT) assay; type: cell-based, human; details: HepG2 cells, challenge of 100 nM dexamethasone; Ki from IC50 by Cheng and Prusoff equation
human recombinant GR = target: T1, human recombinant GR (Homo sapiens, UniProt P04150); assay: Human glucocorticoid receptor (GR) fluorescence polarisation (FP) binding assay; details: human recombinant GR, fluorescence polarisation binding assay; read-out: GR binding
T1 construct: purchased PanVera P2812
T1 sequence (P04150 1-777): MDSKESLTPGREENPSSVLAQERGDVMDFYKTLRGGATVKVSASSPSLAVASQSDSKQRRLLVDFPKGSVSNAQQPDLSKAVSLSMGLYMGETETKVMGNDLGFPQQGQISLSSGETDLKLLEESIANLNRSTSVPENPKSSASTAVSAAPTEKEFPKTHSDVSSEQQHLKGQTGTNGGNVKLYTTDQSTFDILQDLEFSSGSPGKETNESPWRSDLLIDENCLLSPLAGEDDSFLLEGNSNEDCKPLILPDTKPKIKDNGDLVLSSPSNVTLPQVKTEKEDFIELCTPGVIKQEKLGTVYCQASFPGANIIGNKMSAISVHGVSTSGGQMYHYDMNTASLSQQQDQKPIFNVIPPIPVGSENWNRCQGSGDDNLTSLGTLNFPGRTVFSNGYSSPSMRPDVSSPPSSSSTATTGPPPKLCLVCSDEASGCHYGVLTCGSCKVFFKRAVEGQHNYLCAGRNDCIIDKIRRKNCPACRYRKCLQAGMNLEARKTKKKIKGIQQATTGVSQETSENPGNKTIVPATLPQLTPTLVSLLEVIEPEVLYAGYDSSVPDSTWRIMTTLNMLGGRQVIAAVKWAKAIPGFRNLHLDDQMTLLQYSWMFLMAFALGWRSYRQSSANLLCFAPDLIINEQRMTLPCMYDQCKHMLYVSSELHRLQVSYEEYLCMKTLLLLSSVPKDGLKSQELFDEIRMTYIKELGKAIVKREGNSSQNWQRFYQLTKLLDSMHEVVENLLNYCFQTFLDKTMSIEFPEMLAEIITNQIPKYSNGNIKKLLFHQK
Procedure, shortened: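 Competition fluorescence polarisation: 0.5 nM GS Red labelled glucocorticoid and 1 nM recombinant human GR with 8-point half-log compound series, 1% DMSO, 4 h room temperature, potassium phosphate pH 7.4 buffer with molybdate, EDTA, DTT. Affinity derived from the drop in polarisation, normalised to blank wells.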

Ki (human recombinant GR) [nM] | Structure (SMILES) | Ki [1] [nM]
0.5 to 1 | Cc1csc(C(=O)[C@]23Cc4cnn(-c5ccc(F)cc5)c4C=C2CCN(S(=O)(=O)c2cccc(C(F)(F)F)c2)C3)n1 [Example 12M, (R)-(1-(4-fluorophenyl)-6-((3-(trifluoromethyl)phenyl)sulfonyl)-4,4a,5,6,7,8-hexahydro-1H-pyrazolo[3,4-g]isoquinolin-4a-yl)(4-methylthiazol-2-yl)methanone] | 20 to 100
< 0.5 | Cc1ccc(S(=O)(=O)N2CCC3=Cc4c(cnn4-c4ccc(F)cc4)C[C@]3(C(=O)c3cscn3)C2)cc1 [Example 11K, (R)-(1-(4-fluorophenyl)-6-tosyl-4,4a,5,6,7,8-hexahydro-1H-pyrazolo[3,4-g]isoquinolin-4a-yl)(thiazol-4-yl)methanone] | < 20
< 0.5 | Cc1cccc(S(=O)(=O)N2CCC3=Cc4c(cnn4-c4ccc(F)cc4)C[C@]3(C(=O)c3ncccn3)C2)c1 [Example 1J, (R)-(1-(4-fluorophenyl)-6-(m-tolylsulfonyl)-4,4a,5,6,7,8-hexahydro-1H-pyrazolo [3,4-g]isoquinolin-4a-yl)(pyrimidin-2-yl)methanone] | 20 to 100
< 0.5 | Cc1cnc(C(=O)[C@]23Cc4cnn(-c5ccc(F)cc5)c4C=C2CCN(S(=O)(=O)c2cnn(C)c2)C3)s1 [Example 12T, (R)-(1-(4-fluorophenyl)-6-((1-methyl-1H-pyrazol-4-yl)sulfonyl)-4,4a,5,6,7,8-hexahydro-1H-pyrazolo[3,4-g]isoquinolin-4a-yl)(5-methylthiazol-2-yl)methanone] | < 20
< 0.5 | O=C(c1ccccn1)[C@]12Cc3cnn(-c4ccc(F)cc4)c3C=C1CCN(S(=O)(=O)c1cncc(F)c1)C2 [Example 5F, (R)-(1-(4-fluorophenyl)-6-((5-fluoropyridin-3-yl)sulfonyl)-4,4a,5,6,7,8-hexahydro-1H-pyrazolo[3,4-g]isoquinolin-4a-yl)(pyridin-2-yl)methanone] | 20 to 100
< 0.5 | CCn1ncc(S(=O)(=O)N2CCC3=Cc4c(cnn4-c4ccc(F)cc4)C[C@]3(C(=O)c3cc(C(F)(F)F)ccn3)C2)n1 [Example 11CK, (R)-(6-((2-ethyl-2H-1,2,3-triazol-4-yl)sulfonyl)-1-(4-fluorophenyl)-4,4a,5,6,7,8-hexahydro-1H-pyrazolo[3,4-g]isoquinolin-4a-yl)(4-(trifluoromethyl)pyridin-2-yl)methanone] | < 20
< 0.5 | Cn1ncc(S(=O)(=O)N2CCC3=Cc4c(cnn4-c4ccc(F)cc4)C[C@]3(C(=O)c3ccccn3)C2)n1 (single isomer, unassigned) [Example 11DB] | < 20
< 0.5 | O=C(c1nccs1)[C@]12Cc3cnn(-c4ccc(F)cc4)c3C=C1CCN(S(=O)(=O)c1cccc(Cl)c1)C2 [Example 12E, (R)-(6-((3-chlorophenyl)sulfonyl)-1-(4-fluorophenyl)-4,4a,5,6,7,8-hexahydro-1H-pyrazolo[3,4-g]isoquinolin-4a-yl)(thiazol-2-yl)methanone] | 20 to 100
> 1 | O=C(c1cc(C(F)(F)F)ccn1)[C@]12Cc3cnn(-c4ccc(F)cc4)c3C=C1CCN(S(=O)(=O)c1cc(F)c(F)c(F)c1)C2 [Example 11BQ, (R)-(1-(4-fluorophenyl)-6-((3,4,5-trifluorophenyl)sulfonyl)-4,4a,5,6,7,8-hexahydro-1H-pyrazolo[3,4-g]isoquinolin-4a-yl)(4-(trifluoromethyl)pyridin-2-yl)methanone] | < 20

Source: patent publication US12226412B2, “Heteroaryl-ketone fused azadecalin glucocorticoid receptor modulators” (Corcept Therapeutics, Inc., priority 2012, dated 2025)
